The LD50 is the dose expected to kill half of the subjects tested. A higher LD50 goes with a less toxic substance.

Like-named read-outs stand apart in the source and are kept apart here.

The values below come from patent US4683245A, “Laevorotatory antipode of moprolol as an antihypertensive” (SIMES S.p.A. Societa Italiana Medicinali e Sintetici, priority 1979, dated 1987).

The subject of data set [1] is adrenergic beta-receptors. Briefly: inhibition of hemodynamic effects of isoproterenol (beta-receptor stimulation) in anesthetized dogs. Format: in vivo, dog. As to conditions: isoproterenol 0.25 μg/Kg/minute i.v.; for beta-blocking activity (in words): anesthetized dogs, duodenal administration. An excerpt: In order better to clarify the advantages connected with the use of pharmaceutical compositions according to the present invention, the attached drawings include three diagrams relating to certain experiments conducted in anesthetized dogs. These diagrams concern the inhibition by recemic moprolol, it laevorotatory optical isomer and its dextro-rotatory optical isomer, of certain homodynamic effects due to stimulation of the adrenergic beta-receptors following on intravenous infusion of isoproterenol at a dose of 0.25 μg/Kg/minute.
The curves therein reported refer to the means of the results of three tests for each substance.

For data set [2], the system named is mouse. Briefly: Lethal Dose50 (LD50) in the mouse. Format: in vivo. The text has this:
(§1) In this regard the following Table I reports the LD50 of the single isomers and of the racemic product.

Data set [3] relates to spontaneously beating right atrium preparations. Briefly: chronotropic effect on spontaneously beating right atria from reserpinized guinea-pigs. Set-up: species or system guinea-pig. On the procedure: Experiments were carried out on spontaneously beating right atrium preparations taken from the hearts of guinea-pigs of both sexes, weighing 300 to 400 g.
Twenty hrs before sacrifice the animals were injected intramuscularly with reserpine dissolved in 20% ascorbic acid in 2 doses of 2 mg/kg each at 24 hrs distance. An equal number of animals received the reserpine solvent only and were kept as controls.
The preparations were suspended in 10 ml vessels containing Krebs-Henseleitsolution aerated with […] and maintained at a temperature of 35° C.
The right atria were fixed to the vessel base by one end and connected to a transducer of a semiisometric microdynanometer (Basile) by the other end.
Heart rate was recorded directly from the tracing.
All the preparations were subjected to a reset traction of 0.6-0.8 g and allowed to stabilize for 1 hr before starting experiments.
The substances were placed in the vessel in cumulative concentrations. Each concentration was increased by three times as compared with the previous one and a 10 min. interspace was left between concentrations.
The control preparations were made by replacing in the vessel the only solvent (H2 O) in the same volumes as for the drug solutions. The effect excerted by the drug and the solvent on atrial rate was evaluated as per-cent variation as compared with baseline values. The significance of the differences between treated and control animals was assessed by Dunnett's test.
***In order to be able to compare the effect of combined doses of the
enantiomers with those of equal doses of the single enantiomers racemic
moprolol was used in concentration double with respect to the single

The subject of data set [4] is adrenergic beta-receptors. The data set can be described thus: Median effective Dose (ED50) in the dog. Format: in vivo. The text has this: The data given in Table I evidence similar toxicity of the three different compounds.
In this regard the following Table II gives the respective data for the three compounds (±); (-); (+).

Data set [5] can be described thus: Lethal Dose50 (LD50) in the mouse. The format is in vivo. To be noted: mouse, in vivo, in the mouse.
Description: as §1

The mark [6] stands for this setting: listed as laevorotatory moprolol.
The mark [7] stands for this setting: reserpinized guinea-pig right atrium.
The mark [8] stands for this setting: Cavia porcellus, read-out: Chronotropic effect (% variation).

Turning to `COc1ccccc1OCC(O)CNC(C)C` (single isomer, unassigned) [Moprolol (+)], the “beta-blocking activity (in words)” value is “practically nil” in data set [1] (listed as dextro-rotatory isomer) and “almost complete lack of beta-blocking activity” in data set [1] (listed as dextrorotatory optical isomer). Moreover, the “toxicity (in words)” value in data set [2] (LD50, mouse) is “same toxicity as the laevorotatory isomer and the racemic form”. Also, in data set [2] (in the mouse), the “Lethal Dose50 (LD50)” value came out at 720 mg/kg weight animal. Moreover, the “Chronotropic effect (% variation)” value in data set [3] (1 × 10^-4 M, vs baseline, mean ± S.E., listed as d-moprolol) is listed as -37.5%; in data set [3] (1 × 10^-5 M, vs baseline, mean ± S.E., listed as d-moprolol) it was -7.25%; in data set [3] (1 × 10^-6 M, vs baseline, mean ± S.E., listed as d-moprolol), -2%; in data set [3] (1 × 10^-7 M, vs baseline, mean ± S.E., listed as d-moprolol), -2.7%; in data set [3] (1 × 10^-8 M, vs baseline, mean ± S.E., listed as d-moprolol), -1.25%; in data set [3] (3 × 10^-5 M, vs baseline, mean ± S.E., listed as d-moprolol), -14.7%. Besides, the “Chronotropic effect (% variation)” value in data set [3] (3 × 10^-6 M, vs baseline, mean ± S.E., listed as d-moprolol) is reported as -6%; in data set [3] (3 × 10^-7 M, vs baseline, mean ± S.E., listed as d-moprolol), -2.7%; in data set [3] (3 × 10^-8 M, vs baseline, mean ± S.E., listed as d-moprolol), -4%. Also, in data set [3] (reserpinized guinea-pig right atrium, listed as Dextro-rotatory isomer of moprolol), the “effect on atrial rate (in words)” value was “no stimulant effect in a range of concentrations which have proved to be active for laevorotatory isomer of moprolol. On the contrary, they give rise to a depressant effect”. In data set [4], the “Median effective Dose (ED50)” value is reported as “nil”. Moreover, in data set [4], the “activity at effective dose (in words)” value is listed as “without any activity whatsoever”.

For the molecule `COc1ccccc1OCC(O)CNC(C)C` (single isomer, unassigned) [Moprolol (-)], the “significance (P) of correlation coefficient of dose-dependent inhibition” value in data set [1] (0.25, 0.0625 and 0.125 mg/kg) was < 0.01. The figures for the “beta-blocking activity (in words)” value in data set [1] (listed as laevoratatory isomer of moprolol) and in data set [1] (setting [6]) were “exactly double that of racemic moprolol” and “particularly evident for the laevorotatory form in a dose-dependent manner”, respectively. Also, the LD50 in data set [5] was 605 mg/kg. The “cardiac action (in words)” value in data set [3] is given as “cardiac stimulant action”. Also, the “Chronotropic effect (% variation)” value in data set [3] (1 × 10^-4 M, vs baseline, mean ± S.E., listed as 1-moprolol) is given as -10.8%; in data set [3] (1 × 10^-5 M, vs baseline, mean ± S.E., listed as 1-moprolol) it was “+4%”; in data set [3] (1 × 10^-6 M, vs baseline, mean ± S.E., listed as 1-moprolol) it was “+8.8%”; in data set [3] (1 × 10^-7 M, vs baseline, mean ± S.E., listed as 1-moprolol), “+10.4%”; in data set [3] (1 × 10^-8 M, vs baseline, mean ± S.E., listed as 1-moprolol) it was “+8.2%”; in data set [3] (3 × 10^-5 M, vs baseline, mean ± S.E., listed as 1-moprolol), “+0.2%”. Further, the “Chronotropic effect (% variation)” value is reported as “+7.8%” in data set [3] (3 × 10^-6 M, vs baseline, mean ± S.E., listed as 1-moprolol); “+10.4%” in data set [3] (3 × 10^-7 M, vs baseline, mean ± S.E., listed as 1-moprolol); “+11.4%” in data set [3] (3 × 10^-8 M, vs baseline, mean ± S.E., listed as 1-moprolol). Besides, the “concentration range of stimulant effect on atrial rate” value in data set [3] (setting [7]) lay in the range of 10 to 1000 nM. Also, the “effect on atrial rate (in words)” value in data set [3] (reserpinized guinea-pig right atrium, listed as Laevorotatory isomer of moprolol) is given as “causes a stimulant effect on atrial rate”. In addition, the “Median effective Dose (ED50)” value in data set [4] and in data set [4] (setting [6]) was 0.0781 mg/kg weight animal throughout. Further, the “activity relative to the racemic form (times more active)” value in data set [4] (effective dose) amounted to 2 times.

As to `Cl.NCCc1ccc(O)cc1` [Tyramine HCl], in data set [3] (setting [8]), the activation at 0.1 µM is 0%, the activation at 0.3 µM came to 0%, the activation at 1 µM was 0% and the activation at 3 µM stood at 0%. In data set [3] (setting [8]), the activation at 10 µM is -1 ± 1%, the activation at 30 µM was -3% and the activation at 100 µM is -3%. Also, the “effect on atrial rate (in words)” value in data set [3] (setting [7]) is “devoid of positive chronotropic effect”.

Take `CC(C)NCC(O)COc1cccc2ccccc12` (single isomer, unassigned) [Moprolol 1-propanolol]: the “atr. block (preparations blocked / total)” value in data set [3] (1 × 10^-4 M) is listed as 4/4. Further, the “Chronotropic effect (% variation)” value in data set [3] (1 × 10^-4 M, vs baseline, mean ± S.E.) is listed as “atr. block”. In addition, the activation at 10 µM in data set [3] (Cavia porcellus, 1 × 10^-5 M, vs baseline, mean ± S.E., read-out: Chronotropic effect (% variation)) is -21.5%. Also, the activation at 1 µM in data set [3] (Cavia porcellus, 1 × 10^-6 M, vs baseline, mean ± S.E., read-out: Chronotropic effect (% variation)) was -5.7%. For the same molecule, the activation at 0.1 µM in data set [3] (Cavia porcellus, 1 × 10^-7 M, vs baseline, mean ± S.E., read-out: Chronotropic effect (% variation)) is -2%. In addition, the activation at 0.01 µM in data set [3] (Cavia porcellus, 1 × 10^-8 M, vs baseline, mean ± S.E., read-out: Chronotropic effect (% variation)) is -0.5%. Besides, in data set [3] (Cavia porcellus, 3 × 10^-5 M, vs baseline, mean ± S.E., read-out: Chronotropic effect (% variation)), the activation at 30 µM was -37%. Also, in data set [3] (Cavia porcellus, 3 × 10^-6 M, vs baseline, mean ± S.E., read-out: Chronotropic effect (% variation)), the activation at 3 µM is -11.2%. Also, the activation at 0.3 µM in data set [3] (Cavia porcellus, 3 × 10^-7 M, vs baseline, mean ± S.E., read-out: Chronotropic effect (% variation)) was -3.5%. Moreover, the activation at 0.03 µM in data set [3] (Cavia porcellus, 3 × 10^-8 M, vs baseline, mean ± S.E., read-out: Chronotropic effect (% variation)) is -0.75%. Further, in data set [3] (Cavia porcellus, reserpinized guinea-pig right atrium, read-out: concentration from which depressant effect on atrial rate starts), the minimal effective concentration was ≥ 1 µM. In addition, the “effect on atrial rate (in words)” value in data set [3] (reserpinized guinea-pig right atrium, listed as Laevorotatory isomer of propanolol) was “no stimulant effect but a depressant effect”; in data set [3] (reserpinized guinea-pig right atrium, listed as laevorotatory isomer of propanolol), “more marked than that evoked by laevorotatory isomer, dextro-rotatory isomer and racemic moprolol”.

As for `COc1ccccc1OCC(O)CNC(C)C` (racemic) [Moprolol (±), 1-(o-methoxy-phenoxy)-3-isopropyl-amino-propane-2-ol], the LD50 in data set [5] is 712 mg/kg. Further, the “cardiac action (in words)” value in data set [3] was “cardiac depressant action”. Besides, the activation at 0.01 µM in data set [3] (Cavia porcellus, column 1 × 10^-8, racemate used in double concentration vs single enantiomers, read-out: Chronotropic effect (% variation)) worked out at 0%. The “Median effective Dose (ED50)” value in data set [4] is 0.150 mg/kg weight animal.
